This note sets out measurements from patent publication US20250339569A1, “CARBONIC ANHYDRASE IX LIGANDS” (priority 2021, published 2025).

Read-outs that look alike come from different tables or passages of the source. Starred links: 1 amine or outer side, 2 acyl side, 3 side chain; linkers in the order of their positions; H or OH if unused. Positions of bridges follow the written chain, without caps; N, C: chain ends. Non-standard residues stand in square brackets, D forms with d. Residues, ends and D or L forms follow the SMILES beside them. *: point of attachment. NH(1-deoxy-D-glucityl) = OC[C@@H](O)[C@@H](O)[C@H](O)[C@@H](O)CN*; DOTA = O=C(O)CN1CCN(CC(=O)O)CCN(CC(=O)*)CCN(CC(=O)O)CC1; Phe(3,4-Cl2) = N[C@@H](Cc1ccc(Cl)c(Cl)c1)C(=O)O; mXylylene = c1cc(C[*:1])cc(C[*:2])c1; Orn(Me2) = CN(C)CCC[C@H](N)C(=O)O; X2 = O=C(CN1CCC(N[*:1])CC1)[*:2]; tBuAla = CC(C)(C)C[C@H](N)C(=O)O; X1 = O=C(CN1CCN([*:1])CC1)[*:2]; hSer = N[C@@H](CCO)C(=O)O; Dap = NC[C@H](N)C(=O)O; Bn = c1ccc(C*)cc1

A short description of data set [1]: Plasma stability assay, mouse plasma. The note with it: mouse plasma, 37°C, 24 h.
The target in data set [2] is T1, human carbonic anhydrase IX (hCAIX-Fc) (Homo sapiens, UniProt Q16790).
T1 construct: purchased SinoBliological (Sino Biological) 10107-H02H
In words: Surface plasmon resonance assay with hCAIX-Fc. Format: binding. Particulars: 25° C.; for t1/2 category (activity): SPR dissociation half-life, hCAIX-Fc; for Kd: SPR, hCAIX-Fc captured, read-out: pKD category (activity) (converted).

The target in data set [3] is T2, CAIX-expressing human HT-29 colorectal cancer cells (Homo sapiens, UniProt Q16790).
T2 construct: CAIX-expressing human HT-29 colorectal cancer cells; host or cells: HT-29 human colorectal cancer cells
In words: FACS binding assay (IC50 determination, competition with tracer 3BP-2776 or 3BP-4149). Particulars: 4° C., 1 hour, read-out: pIC50 category (activity) (converted). Summed up: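 HT-29 cells in FACS buffer (PBS, 1% FCS) at 500.000 cells/ml were exposed to compounds competing with a labelled tracer, with biotinylated compounds detected by 1 μg/mL APC-streptavidin for 30 min on ice. APC/Cy5 median fluorescence was read by flow cytometry and IC50 derived by 4PL fit.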

The mark [4] stands for this setting: FACS binding assay, HT-29 cells, competition with tracer 3BP-2776 (10 nM, biotin-labeled).

Consider `CC(C)C[C@@H]1NC(=O)[C@H](Cc2c[nH]c3ccccc23)NC(=O)[C@@H]2CCCCNC(=O)CC[C@H](NC1=O)C(=O)N[C@@H](Cc1c[nH]c3ccccc13)C(=O)N[C@@H](CO)C(=O)N[C@H](C(N)=O)CSCc1cccc(c1)CSC[C@H](NC(=O)[C@H](Cc1ccc(O)cc1)NC(=O)CN1CCN(CC(=O)O)CCN(CC(=O)O)CCN(CC(=O)O)CC1)C(=O)N[C@@H](CCC(=O)O)C(=O)N1CCC[C@@H]1C(=O)N2` [3BP-3934, DOTA-Tyr-[Cys(3MeBn)-Glu-pro-{Lys-Trp-Leu-Glu}-Trp-Ser-Cys]-NH2] ({DOTA}-YCE[dP]KWLEWSC-NH2; linker 2-11 via mXylylene; lactam 5-8), for which the “% intact compound remaining (incubation time)” value (shortened to “% intact compound remaining”) in data set [1] is listed as above 95%. In data set [2], the “t1/2 category (activity)” value is “C (t1/2 between 2.1 and 5.0 minutes)”; the Kd was below 10 nM. Further, the IC50 in data set [3] (FACS competition on HT-29 cells, Tracer ID 3BP-2776 (10 nM, biotin-labeled)) is below 10 nM.

Turning to `CC(C)C[C@@H]1NC(=O)[C@H](Cc2c[nH]c3ccccc23)NC(=O)[C@H](CC(=O)O)NC(=O)[C@H]2CCCN2C(=O)[C@H](CCCN(C)C)NC(=O)[C@@H](NC(=O)[C@H](Cc2ccc(O)cc2)NC(=O)[C@@H](NC(=O)CN2CCC(NC(=O)CN3CCN(CC(=O)O)CCN(CC(=O)O)CCN(CC(=O)O)CC3)CC2)C(C)C)CSCc2cccc(c2)CSC[C@@H](C(N)=O)NC(=O)[C@H](CO)NC(=O)[C@H](Cc2c[nH]c3ccccc23)NC(=O)[C@H]([C@@H](C)O)NC1=O` [3BP-4096] ({DOTA}-[X2]VYC[Orn(Me2)][dP]DWLTWSC-NH2; linker 4-13 via mXylylene), the “% intact compound remaining” value in data set [1] is 93%. Besides, in data set [2], the “t1/2 category (activity)” value was “B (t1/2 between 5.1 and 15.0 minutes)”; the Kd is below 10 nM. Further, in data set [3] (setting [4]), the IC50 was below 10 nM.

In the case of `CC(C)C[C@@H]1NC(=O)[C@H](Cc2c[nH]c3ccccc23)NC(=O)[C@H](CC(=O)O)NC(=O)[C@H]2CCCN2C(=O)[C@H](CCO)NC(=O)[C@@H](NC(=O)[C@H](Cc2ccc(O)cc2)NC(=O)[C@@H](NC(=O)CN2CCC(NC(=O)CN3CCN(CC(=O)O)CCN(CC(=O)O)CCN(CC(=O)O)CC3)CC2)C(C)C)CSCc2cccc(c2)CSC[C@@H](C(N)=O)NC(=O)[C@H](CO)NC(=O)[C@H](Cc2c[nH]c3ccccc23)NC(=O)[C@H]([C@@H](C)O)NC1=O` [3BP-4101] ({DOTA}-[X2]VYC[hSer][dP]DWLTWSC-NH2; linker 4-13 via mXylylene), the “% intact compound remaining” value in data set [1] is recorded as 93%. Also, in data set [2], the “t1/2 category (activity)” value is “B (t1/2 between 5.1 and 15.0 minutes)”; the Kd was below 10 nM. In addition, the IC50 in data set [3] (setting [4]) was below 10 nM.

Consider `CC(C)C[C@@H]1NC(=O)[C@H](Cc2c[nH]c3ccccc23)NC(=O)[C@H](CC(N)=O)NC(=O)[C@H]2CCCN2C(=O)[C@H](CCC(=O)O)NC(=O)[C@@H](NC(=O)[C@H](Cc2ccc(O)cc2)NC(=O)[C@@H](NC(=O)CN2CCC(NC(=O)CN3CCN(CC(=O)O)CCN(CC(=O)O)CCN(CC(=O)O)CC3)CC2)C(C)C)CSCc2cccc(c2)CSC[C@@H](C(N)=O)NC(=O)[C@H](CO)NC(=O)[C@H](Cc2c[nH]c3ccccc23)NC(=O)[C@H]([C@@H](C)O)NC1=O` [3BP-4103] ({DOTA}-[X2]VYCE[dP]NWLTWSC-NH2; linker 4-13 via mXylylene), for which, in data set [1], the “% intact compound remaining” value came out at 81%. In addition, in data set [2], the “t1/2 category (activity)” value is “A (t1/2>15.0 minutes)” and the Kd is below 10 nM. For the same compound, the IC50 in data set [3] (setting [4]) is below 10 nM.

For `CC(C)C[C@@H]1NC(=O)[C@H](Cc2c[nH]c3ccccc23)NC(=O)[C@H](CC(=O)O)NC(=O)[C@H]2CCCN2C(=O)[C@H](CCC(=O)O)NC(=O)[C@@H](NC(=O)[C@H](CCC(=O)NC[C@H](O)[C@@H](O)[C@H](O)[C@H](O)CO)NC(=O)[C@@H](NC(=O)CN2CCC(NC(=O)CN3CCN(CC(=O)O)CCN(CC(=O)O)CCN(CC(=O)O)CC3)CC2)C(C)C)CSCc2cccc(c2)CSC[C@@H](C(N)=O)NC(=O)[C@H](CO)NC(=O)[C@H](Cc2c[nH]c3ccccc23)NC(=O)[C@H]([C@@H](C)O)NC1=O` [3BP-4112] ({DOTA}-[X2]VE(NH(1-deoxy-D-glucityl))CE[dP]DWLTWSC-NH2; linker 4-13 via mXylylene), the “% intact compound remaining” value in data set [1] was above 95%. Besides, in data set [2], the “t1/2 category (activity)” value is “B (t1/2 between 5.1 and 15.0 minutes)”; the Kd was below 10 nM. For the same compound, the IC50 in data set [3] (setting [4]) was below 10 nM.

Regarding `CC(C)C[C@@H]1NC(=O)[C@H](Cc2c[nH]c3ccccc23)NC(=O)[C@H](CSCc2ccccc2)NC(=O)[C@H]2CCCN2C(=O)[C@H](CCC(=O)O)NC(=O)[C@@H](NC(=O)[C@H](Cc2ccc(O)cc2)NC(=O)[C@@H](NC(=O)CN2CCC(NC(=O)CN3CCN(CC(=O)O)CCN(CC(=O)O)CCN(CC(=O)O)CC3)CC2)C(C)C)CSCc2cccc(c2)CSC[C@@H](C(N)=O)NC(=O)[C@H](CO)NC(=O)[C@H](Cc2c[nH]c3ccccc23)NC(=O)[C@H]([C@@H](C)O)NC1=O` [3BP-4128] ({DOTA}-[X2]VYCE[dP]C(Bn)WLTWSC-NH2; linker 4-13 via mXylylene), the “% intact compound remaining” value in data set [1] is listed as 87%. Also, in data set [2], the “t1/2 category (activity)” value is on record as “A (t1/2>15.0 minutes)” and the Kd was below 10 nM. For the same compound, in data set [3] (setting [4]), the IC50 is below 10 nM.

Turning to `CC(C)C[C@@H]1NC(=O)[C@H](Cc2ccc(Cl)c(Cl)c2)NC(=O)[C@H](CC(=O)O)NC(=O)[C@H]2CCCN2C(=O)[C@H](CCC(=O)O)NC(=O)[C@@H](NC(=O)[C@H](Cc2ccc(O)cc2)NC(=O)[C@@H](NC(=O)CN2CCC(NC(=O)CN3CCN(CC(=O)O)CCN(CC(=O)O)CCN(CC(=O)O)CC3)CC2)C(C)C)CSCc2cccc(c2)CSC[C@@H](C(N)=O)NC(=O)[C@H](CO)NC(=O)[C@H](Cc2c[nH]c3ccccc23)NC(=O)[C@H]([C@@H](C)O)NC1=O` [3BP-4133] ({DOTA}-[X2]VYCE[dP]D[Phe(3,4-Cl2)]LTWSC-NH2; linker 4-13 via mXylylene), the “% intact compound remaining” value in data set [1] was above 95%. Moreover, in data set [2], the “t1/2 category (activity)” value was “B (t1/2 between 5.1 and 15.0 minutes)”; the Kd is below 10 nM. Further, the IC50 in data set [3] (setting [4]) was below 10 nM.

`CC(C)[C@H](NC(=O)CN1CCC(NC(=O)CN2CCN(CC(=O)O)CCN(CC(=O)O)CCN(CC(=O)O)CC2)CC1)C(=O)N[C@@H](Cc1ccc(O)cc1)C(=O)N[C@H]1CSCc2cccc(c2)CSC[C@@H](C(N)=O)NC(=O)[C@H](CO)NC(=O)[C@H](Cc2c[nH]c3ccccc23)NC(=O)[C@H]([C@@H](C)O)NC(=O)[C@H](CC(C)(C)C)NC(=O)[C@H](Cc2c[nH]c3ccccc23)NC(=O)[C@H](CC(=O)O)NC(=O)[C@H]2CCCN2C(=O)[C@H](CCC(=O)O)NC1=O` [3BP-4142] ({DOTA}-[X2]VYCE[dP]DW[tBuAla]TWSC-NH2; linker 4-13 via mXylylene): the “% intact compound remaining” value in data set [1] came to 91%. Also, in data set [2], the “t1/2 category (activity)” value is on record as “A (t1/2>15.0 minutes)” and the Kd was below 10 nM. Also, the IC50 in data set [3] (setting [4]) was below 10 nM.

Take `CC(C)C[C@@H]1NC(=O)[C@H](Cc2c[nH]c3ccccc23)NC(=O)[C@H](CC(=O)O)NC(=O)[C@H]2CCCN2C(=O)[C@H](CCC(=O)O)NC(=O)[C@@H]2CSCc3cccc(c3)CSC[C@@H](C(N)=O)NC(=O)[C@H](CNC(=O)C[C@H](NC(=O)CN3CCN(CC(=O)O)CCN(CC(=O)O)CCN(CC(=O)O)CC3)C(=O)N2)NC(=O)[C@H](Cc2c[nH]c3ccccc23)NC(=O)[C@H]([C@@H](C)O)NC1=O` [3BP-4253] ({DOTA}-DCE[dP]DWLTW[Dap]C-NH2; lactam 1-10; linker 2-11 via mXylylene): the “% intact compound remaining” value in data set [1] is above 95%. For the same compound, in data set [2], the “t1/2 category (activity)” value is “B (t1/2 between 5.1 and 15.0 minutes)”; the Kd was below 10 nM. For the same compound, the IC50 in data set [3] (setting [4]) was below 10 nM.

Consider `CC(C)C[C@@H]1NC(=O)[C@H](Cc2c[nH]c3ccccc23)NC(=O)[C@H](CC(=O)O)NC(=O)[C@H]2CCCN2C(=O)[C@H](CCC(=O)O)NC(=O)[C@@H]2CSCc3cccc(c3)CSC[C@@H](C(N)=O)NC(=O)[C@H](CNC(=O)C[C@H](NC(=O)CN3CCN(C(=O)CN4CCN(CC(=O)O)CCN(CC(=O)O)CCN(CC(=O)O)CC4)CC3)C(=O)N2)NC(=O)[C@H](Cc2c[nH]c3ccccc23)NC(=O)[C@H]([C@@H](C)O)NC1=O` [3BP-4255] ({DOTA}-[X1]DCE[dP]DWLTW[Dap]C-NH2; lactam 2-11; linker 3-12 via mXylylene), for which, in data set [1], the “% intact compound remaining” value came out at 81%. In data set [2], the “t1/2 category (activity)” value is reported as “D (t1/2≤2.0 minutes)” and the Kd was below 10 nM. In addition, in data set [3] (setting [4]), the IC50 was below 10 nM.

With `CC(C)C[C@@H]1NC(=O)[C@H](Cc2c[nH]c3ccccc23)NC(=O)[C@H](CC(=O)O)NC(=O)[C@H]2CCCN2C(=O)[C@H](CCC(=O)O)NC(=O)[C@@H]2CSCc3cccc(c3)CSC[C@@H](C(N)=O)NC(=O)[C@H](CNC(=O)C[C@H](NC(=O)[C@H](CO)NC(=O)CN3CCN(CC(=O)O)CCN(CC(=O)O)CCN(CC(=O)O)CC3)C(=O)N2)NC(=O)[C@H](Cc2c[nH]c3ccccc23)NC(=O)[C@H]([C@@H](C)O)NC1=O` [3BP-4257] ({DOTA}-SDCE[dP]DWLTW[Dap]C-NH2; lactam 2-11; linker 3-12 via mXylylene), the “% intact compound remaining” value in data set [1] was found to be 94%. In data set [2], the “t1/2 category (activity)” value was “C (t1/2 between 2.1 and 5.0 minutes)”; the Kd was below 10 nM. Moreover, the IC50 in data set [3] (setting [4]) was below 10 nM.
